Measurements taken from PMC3283556, “The Activities of Current Antimalarial Drugs on the Life Cycle Stages of Plasmodium: A Comparative Study with Human and Rodent Parasites” (PLoS Medicine, 2012).
Where two headings read alike, the source gives them in different places.

Columns and labels:
[1] = tested on: P. falciparum asexual blood stage parasites (strains NF54, D6, K1, W2, 7G8, TM90C2A, V1/S); assay: [3H]-hypoxanthine incorporation growth inhibition assay, asexual blood stage; assay type: cell-based, Plasmodium falciparum; settings: for IC50: Plasmodium falciparum; for resistance / retention of potency against resistant strains: drug-resistant strains; for fold reduction in potency: against all drug-resistant strains containing the mutated chloroquine transporter (PfCRT)
Description: In vitro antimalarial activity was measured using the [^3H]-hypoxanthine incorporation assay with various strains of P. falciparum obtained from MR4. Results were expressed as the concentration resulting in 50% inhibition (IC50).
The half-maximal inhibitory concentrations (IC50) were determined for each molecule (Table S2).
Figure 2 The potencies of selected antimalarials against asexual blood stages. Main classes of antimalarials were tested against the blood stage of seven Plasmodium falciparum strains in the [^3H]hypoxanthine incorporation assay as described in Vennerstrom et al.. The strains tested here (obtained from MR4) were two drug-sensitive strains NF54 and D6 and five drug-resistant strains: K1, resistant to chloroquine (CQ) and pyrimethamine (PYR), origin Thailand, carries mutations in genes pfmdr1, pfcrt, pfdhfr, pfdhps; W2, resistant to CQ, PYR, quinine, cycloguanil, and sulfadoxine, origin Vietnam; 7G8, resistant to CQ and PYR, origin Brazil; TM90C2A, resistant to CQ, PYR, and MFQ, origin Thailand; and V1/S, resistant to CQ, PYR and cycloguanil, origin Vietnam. Results are expressed as the concentration resulting in 50% growth inhibition (IC50).Values are means of ≥3 independent experiments. (A) Endoperoxides. (B) 4-AQs. (C) 8-AQs and amino alcohols. (D) Antifolates, antibiotics, and others.

[2] = tested on: P. yoelii liver stage parasites (liver schizonts); assay: P. yoelii liver stage assay in HepG2 cells (EEF immunofluorescence); assay type: cell-based, Plasmodium yoelii; settings: for IC50: Plasmodium yoelii; for potency range against liver stages: dose response
Description: (§1) 7.5×10^3 HepG2 cells in 50 µl of medium (1.5×10^5 cells/ml) were seeded in 384 well plates (Aurora 384 IQ-EB Black/Clear Plates) 20–26 h prior to the actual infection. 2 h prior to infection, 50 nl of compound in DMSO (0.1% final DMSO concentration per well) were transferred with a PinTool (GNF Systems) into the assay plates (10 µM final concentration). P. yoelii sporozoites were freshly dissected from infected A. stephensi mosquito salivary glands and filtered twice with a 40-µm strainer. The HepG2 cells were then infected with 8×10^3 sporozoites per well. After infection and 1-h incubation at 37°C, the cultures were washed, new media and compound added, and further incubated with 5-fold increased concentration of penicillin/streptomycin for 48 h at 37°C before exoerythrocytic forms (EEFs) quantification of infected cells by immunofluorescence.
After washing with 1×PBS and fixation of the cells with 4% paraformaldehyde solution (EMS), membranes were permeabilised with 0.5% Triton-X-100 (Thermo Fisher Scientific) and EEFs were stained using a mouse polyclonal serum raised against the Plasmodium heat shock protein 70 (HSP70), an Alexa goat antimouse IgG, Fca-specific DyLight 649 secondary antibody (Invitrogen), and the Hoechst 33342 nucleic acid dye (Invitrogen). Stained EEFs were then quantified using the Opera Confocal High Content Screening system (PerkinElmer). Images were collected using a 20× magnification at a binning of 2 using a 365 Xeon arc lamp illumination to detect the nuclei and 635-nm laser line to excite DyLight649.
(§2) High-content imaging of infected HepG2-CD81 cells was performed as described in Meister et al.. Wells were analysed using a custom Acapella (PerkinElmer) script parameterized for this assay. In brief, images from fields inside the well were first discarded as out of focus when the intensity in the nuclear area was too low. Then hepatic cells were counted by detecting the nuclei labelled with Hoechst 33342 and parasites were segmented using the HSP70 immuno-labelling. Morphology-based (e.g., area, roundness) and intensity-based features were calculated for each object detected including the hepatocyte nuclei and the parasites. Parasitemia was set as the ratio between parasite number (Alexa fluor positive) and the hepatocyte nuclei count, determined at the same time.
(§3) When an infected mosquito bites a host, ∼100 sporozoites may be injected into the dermis from where they rapidly invade liver cells,[33]. This infective step represents the second bottleneck during transmission and therefore another potentially vulnerable point for intervention. In the absence of a practical liver stage assay measuring the formation of P. falciparum/P. vivax liver schizonts, an equivalent assay was developed in P. yoelii and used to assess the activity of the collection of molecules against this specific stage. Specifically, P. yoelii sporozoites were dissected from the salivary glands of infected mosquitoes and were allowed to invade human hepatocarcinoma cells expressing the CD81 protein. The development of the liver schizonts was monitored by immunofluorescence staining using an HSP70 antibody specific to the parasite (Figure 4A).
Figure 4 Validation and results of anti-infectives tested against P. yoelii liver stage parasites. (A) Opera-generated images from a time point experiment using a 20× objective lens. P. yoelii parasites (red) were visualized using a mouse polyclonal HSP70 antibody, and the HepG2 cells (green) were stained with Hoechst 33342 nucleic acid dye. […] (B) A dose response plot with atovaquone from data generated from the Opera imaging system. The median areas of compound-treated parasites were compared to untreated DMSO controls to determine the degree of inhibition.

[3] = tested on: P. falciparum mature gametocytes / male gamete exflagellation; assay: P. falciparum exflagellation assay; assay type: cell-based, Plasmodium falciparum; settings: for inhibition at 10 µM: Plasmodium falciparum
Description: After 24 h, exflagellation was triggered by a temperature decrease to ∼21°C and observed 20 min later under the microscope. Highly motile exflagellation centres were recorded for ∼50–150 adjacent fields of view and reported per 10,000 RBCs.
(A) Assays examined exflagellation (P. falciparum), ookinete formation (P. berghei), or oocyst formation (P. falciparum). All antimalarials were screened at 10 µM. (B) The biological content of the in vitro P. berghei ookinete assay spans gamete formation, fertilization, zygote development, and ookinete formation. […] (D) The in vitro P. falciparum exflagellation assay exposes mature gametocytes to antimalarials for 24 h before triggering exflagellation. […] All experiments in triplicate. (E) The in vivo P. falciparum oocyst assay differs from the P. berghei oocyst assay in that mature gametocytes were exposed to the antimalarials in culture for 24 h before feeding to mosquitoes.

HepG2 cells = assay: Growth retardation of HepG2 cells; settings: for IC50: Homo sapiens, HepG2, read-out: IC50 HepG2
Description: as §1, §2, §3

[4] = asexual blood stage, both drug-resistant and -sensitive strains, read-out: IC50
[5] = HepG2, box linked to liver schizont, read-out: IC50 (liver schizont, Figure 5)
[6] = HepG2, dose response, median parasite area (Opera), read-out: IC50 liver stage
[7] = asexual blood stage, all parasite lines, read-out: IC50
[8] = HepG2, dose response, read-out: IC50 liver stage
[9] = 10 µM, 24 h exposure of mature gametocytes
[10] = asexual blood stage, all parasite lines
[11] = HepG2, development of P. yoelii liver schizonts following infection of HepG2 cells, read-out: IC50 Parasite
[12] = 10 μM, box linked to gametocytes/exflagellation, read-out: Inhibition at 10 μM (gametocytes/exflagellation, Figure 5)
[13] = read-out: inhibition of exflagellation, 10 µM, 24 h exposure of mature gametocytes

SMILES: Cc1cc2nc3c(=O)[nH]c(=O)nc-3n(C[C@H](O)[C@H](O)[C@H](O)CO)c2cc1C [riboflavin]
- IC50 [1, 4]: 1000 to 10000 nM

SMILES: CC1(C)N=C(N)N=C(N)N1c1ccc(Cl)cc1 [cycloguanil]
- IC50 ([1]; Erythrocyte, read-out: IC50 (erythrocyte schizont, Figure 5), box linked to blood stage schizont): < 4 nM
- fold loss of potency ([1]; between sensitive and resistant strains): ≥ 100 fold
- IC50 [2, 5]: < 1000 nM
- IC50 [2, 6]: < 10 nM

SMILES: C[C@H]1[C@H](OC(=O)CCC(=O)O)O[C@@H]2O[C@@]3(C)CC[C@H]4[C@H](C)CC[C@@H]1[C@@]24OO3 [artesunate]
- IC50 [1, 7]: 1 to 15 nM
- IC50 [2, 5]: < 1000 nM

SMILES: CCN(CC)CCCNc1ccnc2cc(Cl)ccc12 [AQ-13]
- IC50 [2, 8]: < 3000 nM

SMILES: COc1cc(NC(C)CCCN)c2ncccc2c1 (stereo not drawn) [primaquine]
- IC50 [1]: 500 to 2500 nM
- enhancement (stimulation) of exflagellation [3, 9]: 15%

SMILES: Clc1ccc2c(N3CCN(CCCN4CCN(c5ccnc6cc(Cl)ccc56)CC4)CC3)ccnc2c1 [piperaquine]
- IC50 [1, 10]: 2 to 10 nM
- resistance / retention of potency against resistant strains [1]: do not lose potency when tested against chloroquine resistant strains

SMILES: CCc1nc(N)nc(N)c1OCCCOc1ccccc1CCC(=O)O [P218]
- IC50 [2, 5]: < 1000 nM
- IC50 [2, 6]: < 10 nM

SMILES: C[C@H]1[C@H](N2CCS(=O)(=O)CC2)O[C@@H]2O[C@@]3(C)CC[C@H]4[C@H](C)CC[C@@H]1[C@@]24OO3 [artemisone]
- IC50 [2, 5]: < 1000 nM
- IC50 [2, 6]: < 100 nM

SMILES: C[C@@H]1CC[C@H]2[C@@H](C)C(=O)O[C@@H]3O[C@@]4(C)CC[C@@H]1[C@]32OO4 [artemisinin]
- IC50 [1, 7]: 1 to 15 nM

SMILES: COc1cc(Cc2cnc(N)nc2N)cc(OC)c1OC [trimethoprim]
- IC50 [1, 4]: 1000 to 10000 nM

SMILES: OC(c1cc(C(F)(F)F)nc2c(C(F)(F)F)cccc12)C1CCCCN1 (racemic) [racemic mefloquine, mefloquine]
- IC50 [1]: < 10 nM
- IC50 (HepG2 cells): 1730 ± 600 nM
- CI (cytotoxicity index) (HepG2 cells; human, 48 h): 1.02
- IC50 [2, 11]: 1690 ± 1450 nM

SMILES: C=C[C@H]1C[N@@]2CC[C@H]1C[C@@H]2[C@@H](O)c1ccnc2ccc(OC)cc12 [quinidine]
- IC50 [2, 5]: < 1000 nM
- potency range against liver stages [2]: submicromolar potencies

SMILES: CCN(CCO)CCCC(C)Nc1ccnc2cc(Cl)ccc12 (stereo not drawn) [hydroxychloroquine]
- fold reduction in potency [1]: 6–100 fold
- enhancement (stimulation) of exflagellation [3, 9]: at least 20%

SMILES: N=C(N)c1ccc(OCCCCCOc2ccc(C(=N)N)cc2)cc1 [Pentamidine]
- IC50 (HepG2 cells): 3750 ± 1100 nM
- CI (cytotoxicity index) (HepG2 cells; human, 48 h): 1.52
- IC50 [2, 11]: 2460 ± 570 nM

SMILES: CC[C@H]1OC(=O)[C@H](C)[C@@H](O[C@H]2C[C@@](C)(OC)[C@@H](O)[C@H](C)O2)[C@H](C)[C@@H](O[C@@H]2O[C@H](C)C[C@H](N(C)C)[C@H]2O)[C@](C)(O)C[C@@H](C)CN(C)[C@H](C)[C@@H](O)[C@]1(C)O [azithromycin]
- IC50 [1, 4]: 1000 to 10000 nM

SMILES: CCN(CC)CCCC(C)Nc1ccnc2cc(Cl)ccc12 (stereo not drawn) [chloroquine]
- fold reduction in potency [1]: 6–100 fold
- enhancement (stimulation) of exflagellation [3, 9]: at least 20%

SMILES: C[C@]12CC[C@H](O)CC1=CC[C@@H]1[C@@H]2CC[C@]2(C)C(=O)CC[C@@H]12 [dehydroepiandrosterone]
- IC50 ([1]; asexual blood stage, both drug-resistant and -sensitive strains): 1000 to 10000 nM

SMILES: CCN(CC)Cc1cc(Nc2ccnc3cc(Cl)ccc23)ccc1O [amodiaquine]
- IC50 [1, 7]: 2 to 10 nM
- resistance / retention of potency against resistant strains [1]: do not lose potency when tested against chloroquine resistant strains
- effect on exflagellation (words) [3, 9]: inhibited P. falciparum exflagellation
- inhibition at 10 µM [3, 12]: > 60%
- IC50 [2, 8]: < 3000 nM

SMILES: CC(C)(C)NCc1ccc(Nc2ccnc3cc(Cl)ccc23)cc1O [tert-butyl-isoquine]
- IC50 [1, 10]: 2 to 10 nM
- resistance / retention of potency against resistant strains [1]: do not lose potency when tested against chloroquine resistant strains
- effect on exflagellation (words) [3, 9]: inhibited P. falciparum exflagellation
- effect on exflagellation (words) ([3]; 10 µM, 24 h exposure of mature gametocytes, listed as tert-butyl isoquine): inhibited exflagellation totally
- inhibition at 10 µM [3, 12]: > 60%

SMILES: Cc1cc(NS(=O)(=O)c2ccc(N)cc2)no1 [sulfamethoxazole]
- inhibition at 10 µM [3, 13]: > 80%
- inhibition at 10 µM [3, 12]: > 60%

SMILES: CC(C)(C)NCc1cc(Nc2ccnc3cc(Cl)ccc23)c2c(c1O)CCCC2 [naphthoquine]
- IC50 [1, 10]: 2 to 10 nM
- resistance / retention of potency against resistant strains [1]: do not lose potency when tested against chloroquine resistant strains
- IC50 [2, 5]: < 1000 nM
- IC50 [2, 8]: < 3000 nM

SMILES: CC(=O)N(O)CCCCCNC(=O)CCC(=O)N(O)CCCCCNC(=O)CCC(=O)N(O)CCCCCN [deferoxamine]
- IC50 [2, 5]: < 1000 nM
- potency range against liver stages [2]: submicromolar potencies

SMILES: CN(C)c1ccc2nc3ccc(=[N+](C)C)cc-3sc2c1 [methylene blue]
- IC50 [2, 5]: < 1000 nM
- IC50 [2, 6]: < 100 nM

SMILES: CCN(CC)CCCC(C)Nc1cc(OC)cc2cccnc12 (stereo not drawn) [diethylprimaquine]
- IC50 [1, 4]: 500 to 2500 nM
- inhibition at 10 µM [3, 13]: > 70%

SMILES: COc1cc(NC(C)CCCNC(C)=C2CCOC2=O)c2ncccc2c1 (stereo not drawn) [bulaquine]
- IC50 [1, 4]: 500 to 2500 nM

SMILES: [H]/N=C(\N/C(=N/[H])Nc1ccc(Cl)cc1)NC(C)C [proguanil]
- IC50 [1, 4]: 1000 to 10000 nM
- IC50 (HepG2 cells): 15400 ± 3090 nM
- CI (cytotoxicity index) (HepG2 cells; IC50 HepG2 compared to IC50 parasite): 1.31
- IC50 [2, 11]: 11800 ± 5190 nM
